Test results taken from ChEMBL document CHEMBL1128116, “Synthesis and resolution of -(aminomethyl)-4-chlorobenzeneethanesulfinic acid a potent gabaB receptor ligand” (Bioorg Med Chem Lett, 1995).

What was measured:
[1] = Inhibitory activity against Gamma-aminobutyric acid A (GABA-A) receptor; design: species or system Rattus norvegicus
Cavia porcellus = organism: Cavia porcellus; experiment: In vitro inhibition against electrical field stimulated neuronal cholinergic contractions of guinea pig trachea; type: functional

Row | SMILES | IC50 [1] [µM] | IC30 (Cavia porcellus; Cavia porcellus, Trachea, read-out: IC30) [µM] | IC30 (Cavia porcellus) [µM]
1 | NCC(CS(=O)O)c1ccc(Cl)cc1 (racemic) | > 100 | 22 | –
2 | NCC(CS(=O)O)c1ccc(Cl)cc1 (single isomer, unassigned; (-)) | – | – | 13.9
